Experimental data as given in PubChem BioAssay (NCI).
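These data come from cells grown in 96-well plates and exposed to compound for 48 hours at five concentrations. GI50 = concentration required for 50% inhibition of growth. TGI marks complete inhibition of growth.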

Tests used:
Assay in all cases: NCI tumour cell line growth inhibition, 48 h
COLO 205 colon = tested on: COLO 205 colon
HCC-2998 colon = tested on: HCC-2998 colon
HL-60(TB) leukemia = tested on: HL-60(TB) leukemia
NCI-H226 lung = tested on: NCI-H226 lung
OVCAR-4 ovarian = tested on: OVCAR-4 ovarian
SK-MEL-28 melanoma = tested on: SK-MEL-28 melanoma
SR leukemia = tested on: SR leukemia
U251 CNS = tested on: U251 CNS
HCT-15 colon = tested on: HCT-15 colon
MCF7 breast = tested on: MCF7 breast

| Structure (SMILES) | TGI (COLO 205 colon) [µM] | TGI (HCC-2998 colon) [µM] | TGI (HL-60(TB) leukemia) [µM] | TGI (NCI-H226 lung) [µM] | TGI (OVCAR-4 ovarian) [µM] | TGI (SK-MEL-28 melanoma) [µM] | TGI (SR leukemia) [µM] | TGI (U251 CNS) [µM] | GI50 (COLO 205 colon) [µM] | GI50 (HCC-2998 colon) [µM] | GI50 (HCT-15 colon) [µM] | TGI (HCT-15 colon) [µM] | GI50 (HL-60(TB) leukemia) [µM] | GI50 (MCF7 breast) [µM] | TGI (MCF7 breast) [µM] | GI50 (NCI-H226 lung) [µM] | GI50 (OVCAR-4 ovarian) [µM] | GI50 (SK-MEL-28 melanoma) [µM] | GI50 (U251 CNS) [µM] | GI50 (SR leukemia) [µM] |
| --- | --- | --- | --- | --- | --- | --- | --- | --- | --- | --- | --- | --- | --- | --- | --- | --- | --- | --- | --- | --- |
| NC(=O)c1ncn(C2OC(CO)C(O)C2O)c1NC(=S)NC(=O)c1ccccc1 (stereo unspecified) | > 100 | > 100 | > 100 | > 100 | > 100 | > 100 | > 100 | > 100 |  |  |  |  |  |  |  |  |  |  |  |  |
| Cc1ccc2c(C(C[N+](=O)[O-])c3ccco3)c(-c3ccccc3)[nH]c2c1 (stereo unspecified) | > 100 | > 100 | > 100 | > 100 | > 100 | > 100 |  | > 100 | 31.7 | > 100 | 7.28 | > 100 | 28.3 | 9.09 | > 100 | > 100 | 69 | 98.9 | 46.2 |  |
| NCCNc1nc2ccccc2c2c(=O)c3cc(F)cc(Cl)c3sc12 | 3.31 | 3.45 | 3.76 | 31.2 | 3.41 | 3.4 |  | 2.66 | 1.69 | 1.75 | 1.18 | 2.5 | 1.88 | 1.52 | 3.13 | 9.54 | 1.7 | 1.87 | 1.22 |  |
| CC(=O)[O-].O=[N+]([O-])c1ccc([O-])c(C=NCCN=Cc2cc([N+](=O)[O-])ccc2[O-])c1.[Mn+3] |  | > 100 | > 100 | > 100 | > 100 | > 100 |  | > 100 |  | 74.5 | > 100 | > 100 | > 100 |  |  | 89.1 | > 100 | > 100 | > 100 |  |
| C1=CC=C2NCCSCCNC3=CC=CC=CC3=NCCSCCN=C2C=C1 | > 100 | > 100 | > 100 | > 100 | > 100 | > 100 |  | > 100 |  |  |  | > 100 |  |  |  |  |  |  |  |  |
| CC[C@H](C)[C@H](NC(=O)N[C@@H](C)c1ccccc1)C(=O)N(C)[C@H](C[C@@H](OC(C)=O)c1nc(C(=O)N[C@@H](Cc2ccccc2)C[C@H](C)C(=O)OC)cs1)C(C)C | 57.1 | > 100 |  | > 100 | > 100 | > 100 |  | > 100 | 20.1 | 28.8 | 25.4 | > 100 |  | 7.28 | > 100 | 44.1 | 38.5 | 47 | 33.1 |  |
| N#CC1=C(N)NC(=S)C(C#N)C12Nc1ccccc1S2 (stereo unspecified) | 60.6 |  | > 100 |  |  | 56.7 | > 100 | 40.2 | 25.5 |  | 15 | 42.3 | 35.1 | 8.14 | > 100 |  |  | 24.3 | 18.3 | 78.9 |
| O=C1[C@H]2ON(c3ccccc3)C(c3cccc([N+](=O)[O-])c3)[C@H]2C(=O)N1c1ccc(Cc2ccc(N3C(=O)[C@@H]4ON(c5ccccc5)C(c5cccc([N+](=O)[O-])c5)[C@@H]4C3=O)cc2)cc1 (stereo partly specified) | > 100 | > 100 | > 100 | > 100 | > 100 | > 100 | > 100 | > 100 |  |  |  | > 100 |  |  |  |  |  |  |  |  |
| CC(C)(C)OC(=O)n1c(Cl)c(C(=O)N=C=S)c2ccccc21 | > 100 | > 100 | > 100 | > 100 | > 100 | > 100 |  | > 100 | 33.6 | 38.9 | 30 | > 100 | 24.4 | 37.2 | > 100 | > 100 | > 100 | 80.7 | 34.2 |  |
| CCCCOP1(=O)C=CC(Cl)=C(C)C1 (stereo unspecified) | 97.7 |  | 39.6 | 41.9 | 73.7 | 31.7 | 39.4 |  |  |  |  | 32.8 |  |  |  |  |  |  |  |  |
| CC(C)(C)c1cc(C(=O)O)c(C(c2ccccc2)c2ccccc2C(=O)O)c(C(=O)O)c1 (stereo unspecified) | > 100 |  | > 100 | 76.7 | 37.7 | > 100 | > 100 | 25.4 |  |  |  | > 100 |  |  |  |  |  |  |  |  |
| C=C1c2ccccc2N(S(=O)(=O)c2ccc(C)cc2)C12CCCCC2 | > 100 | > 100 | > 100 | > 100 | > 100 | > 100 | > 100 | > 100 |  |  |  | > 100 |  |  |  |  |  |  |  |  |
| CN1C=C(C(N)=O)C2CC(O)[C@@](NC(=O)CS(N)(=O)=O)(C(=O)O)C2C1 (stereo partly specified) | 29.2 | 34 | > 100 | 8.52 | 4.15 | 7.32 | 15.7 | 11 |  |  |  | 66.3 |  |  |  |  |  |  |  |  |
| O=C1OC(c2ccc(Cl)c3ccccc23)c2ccccc21 (stereo unspecified) | > 100 | > 100 | > 100 |  | > 100 | > 100 | > 100 | > 100 |  |  |  | > 100 |  |  |  |  |  |  |  |  |
| BrC(Br)([P+](c1ccccc1)(c1ccccc1)c1ccccc1)[P+](c1ccccc1)(c1ccccc1)c1ccccc1 | 29.9 | 31.8 | 54.3 | 73 | 43.3 | 50 | 56 | 47.3 |  |  |  | 98.2 |  |  |  |  |  |  |  |  |
| CCCC/C=C1\CCC(CN2CCCC2)C1=O (stereo unspecified) | 26.1 | 33.7 | 31.4 | 31.8 |  | 29.1 | 24.5 | 19.6 |  |  |  | 11.2 |  |  |  |  |  |  |  |  |
| Cc1ccc(-c2cc(C(Cl)Cl)on2)cc1 | > 100 |  | > 100 | > 100 | > 100 | > 100 |  | > 100 | 35.4 |  | 42.4 | > 100 | 62.9 | 97.6 | > 100 | 48.2 | 77.6 | > 100 | 55.1 |  |
| O=c1ncccn1C1OC(CO)C(O)C1F (stereo unspecified) | > 100 | > 100 | > 100 | > 100 | > 100 | > 100 | > 100 | > 100 |  |  | > 100 | > 100 |  |  |  |  |  |  |  |  |
| OCCN(CCO)c1ncnc2c1sc(=S)n2-c1ccccc1 | > 100 | > 100 | > 100 | > 100 | > 100 | > 100 | > 100 | > 100 |  |  |  | > 100 |  |  |  |  |  |  |  |  |
